Data: the supplement of paper PMC10307832

Legend:
Assay in all cases: relative viability (nuclei count vs DMSO), 5 days (fraction); higher = more cells survive
Kobe2602 + Navitoclax = compound: C1=CC(=CC=C1NC(=S)NNC2=C(C=C(C=C2[N+](=O)[O-])C(F)(F)F)[N+](=O)[O-])F [Kobe2602] + CC1(C)CCC(c2ccc(Cl)cc2)=C(CN2CCN(c3ccc(C(=O)NS(=O)(=O)c4ccc(N[C@H](CCN5CCOCC5)CSc5ccccc5)c(S(=O)(=O)C(F)(F)F)c4)cc3)CC2)C1 [Navitoclax] (partner 0.5 µM)
How it was run: (§1)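 The day after seeding in 1536-well plates, lung cancer cell lines were treated by pin tool with a single drug, or with a fixed anchor-drug dose together with five library-drug doses (not always all listed) in √10 steps. After 5 days, a combined fix-and-stain solution (final 0.05% Triton X-100, 1% formaldehyde, 1 ug/ml Hoechst) was added. Nuclei counted on 4× images gave relative viability as treated counts over vehicle counts, reported as the median of duplicate plates.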

Zosuquidar + Navitoclax = compound: O[C@@H](COc1cccc2ncccc12)CN1CCN([C@@H]2c3ccccc3[C@@H]3[C@H](c4ccccc42)C3(F)F)CC1 [Zosuquidar] + CC1(C)CCC(c2ccc(Cl)cc2)=C(CN2CCN(c3ccc(C(=O)NS(=O)(=O)c4ccc(N[C@H](CCN5CCOCC5)CSc5ccccc5)c(S(=O)(=O)C(F)(F)F)c4)cc3)CC2)C1 [Navitoclax] (partner 0.5 µM)
How it was run: as §1

Zosuquidar + Tozasertib = compound: O[C@@H](COc1cccc2ncccc12)CN1CCN([C@@H]2c3ccccc3[C@@H]3[C@H](c4ccccc42)C3(F)F)CC1 [Zosuquidar] + Cc1cc(Nc2cc(N3CCN(C)CC3)nc(Sc3ccc(NC(=O)C4CC4)cc3)n2)n[nH]1 [Tozasertib] (partner 0.1 µM)
How it was run: as §1

Zosuquidar + Alpelisib = compound: O[C@@H](COc1cccc2ncccc12)CN1CCN([C@@H]2c3ccccc3[C@@H]3[C@H](c4ccccc42)C3(F)F)CC1 [Zosuquidar] + Cc1nc(NC(=O)N2CCC[C@H]2C(N)=O)sc1-c1ccnc(C(C)(C)C(F)(F)F)c1 [Alpelisib] (partner 2 µM)
How it was run: as §1

Cell Line	relative viability (Kobe2602 + Navitoclax; first compound 0.2 µM)	relative viability (Kobe2602 + Navitoclax; first compound 0.6325 µM)	relative viability (Kobe2602 + Navitoclax; first compound 2 µM)	relative viability (Kobe2602 + Navitoclax; first compound 6.325 µM)	relative viability (Kobe2602 + Navitoclax; first compound 20 µM)	relative viability (Zosuquidar + Navitoclax; first compound 0.01 µM)	relative viability (Zosuquidar + Navitoclax; first compound 0.03162 µM)	relative viability (Zosuquidar + Navitoclax; first compound 0.1 µM)	relative viability (Zosuquidar + Navitoclax; first compound 0.3162 µM)	relative viability (Zosuquidar + Navitoclax; first compound 1 µM)	relative viability (Zosuquidar + Tozasertib; first compound 0.01 µM)	relative viability (Zosuquidar + Tozasertib; first compound 0.1 µM)	relative viability (Zosuquidar + Tozasertib; first compound 0.3162 µM)	relative viability (Zosuquidar + Tozasertib; first compound 1 µM)	relative viability (Zosuquidar + Alpelisib; first compound 0.01 µM)	relative viability (Zosuquidar + Alpelisib; first compound 0.03162 µM)	relative viability (Zosuquidar + Alpelisib; first compound 0.1 µM)	relative viability (Zosuquidar + Alpelisib; first compound 0.3162 µM)	relative viability (Zosuquidar + Alpelisib; first compound 1 µM)	relative viability (Zosuquidar + Tozasertib; first compound 0.03162 µM)
NCI-H2087	0.959	0.934	1.01	1.03	0.849	0.968	0.994	0.965	1.18	1.08	0.266	0.27	0.228	0.218	1	1.28	1.2	1.19	1.15	
NCI-H2126	0.883	0.888	0.799	0.776	0.788	0.79	0.845	0.741	0.889	0.845	0.815		0.918	0.796	0.755	0.741	0.554	0.837	0.797	0.861
NCI-H2170	0.65	0.597	0.56	0.57	0.622	0.651	0.626	0.557	0.673	0.571	0.788	0.825	0.622	0.738	0.799	0.786	0.774	0.821	0.769	0.733
NCI-H2228	1.08	0.621	0.69	0.743	0.841	1.12	0.679	0.922	1.12	0.775	0.213	0.252	0.208	0.272	0.562	0.716	0.881	0.679	0.859	0.272
NCI-H2347	0.697	0.82	0.753	0.789	0.807	0.891	0.686	0.583	0.931	0.944	0.593	0.555	0.691	0.543	1.1	0.991	0.833	1.16	0.984	0.575
NCI-H2405	0.82	0.847	0.783	1.06	0.987	1.01	0.853	0.723	1.07	0.894	0.774	0.724	0.747	0.74	0.968	0.745	0.605	0.972	0.837	0.762
NCI-H3122	1.05	0.971	1.02	1.02	1.03	1.04	0.98	1.05	1.02	1.01	0.396		0.466	0.379	0.714	0.769	0.679	0.764	0.763	0.391
PC-3 [JPC-3]	0.833	0.775	0.76	0.847	0.717	0.783	0.775	0.755	0.792	0.755	0.844	0.879	0.824	0.897	0.986	1	0.91	1.03	0.994	0.835
PC-14	0.978	1.04	0.982	1.03	0.971	1.05	0.988	0.983	0.934	0.959	0.551	0.629	0.519	0.57	0.916	1.05	0.864	0.944	0.923	0.602
RERF-LC-KJ	0.804	0.993	0.856	0.971	0.858	0.99	0.853	0.947	1.11	0.844	0.501	0.505	0.519	0.428	0.809	0.913	0.745	0.887	0.874	0.552
SK-LU-1	0.818	0.984	0.713	1.01	0.967	0.82	0.789	1.44	0.974	0.586	0.292	0.417	0.353	0.332	0.954	1.04	1.17	1.26	0.895	0.359
SK-MES-1	1.14	1.23	1.09	1.19	1.23	1.19	1.18	1.09	1.25	1.25	0.797	0.97	0.942	0.857	0.876	0.95	0.692	1.07	0.987	1.01
SW 1573	1.05	1.14	0.96	1.02	0.946	0.974	0.896	1.07	1.05	1.02	0.171	0.14	0.182	0.157	0.721	0.739	0.651	0.89	0.8	0.147
